Molecular target: recombinant human 11β-HSD type 1 enzyme (Homo sapiens, UniProt P28845)
Experiment: 11β-HSD type 1 enzyme assay (NADPH fluorescence)
Assay type: biochemical
Conditions: three hour incubation at room temperature
Procedure: 11β-HSD Type 1 Enzyme Assay Human 11β-HSD type 1 activity is measured by assaying NADPH production by fluorescence assay. Solid compounds are dissolved in DMSO to a concentration of 10 mM. Twenty microliters of each are then transferred to a column of a 96-well polypropylene Nunc plate where they are further diluted 50-fold followed by subsequent two-fold titration, ten times across the plate with additional DMSO using a Tecan Genesis 200 automated system. Plates are then transferred to a Tecan Freedom 200 system with an attached Tecan Temo 96-well head and an Ultra 384 plate reader. Reagents are supplied in 96-well polypropylene Nunc plates and are dispensed individually into black 96-well Molecular Devices High Efficiency assay plates (40 μL/well capacity) in the following fashion: 9 μL/well of substrate (2.22 mM NADP, 55.5 μM […], 10 mM Tris, 0.25% Prionex, 0.1% Triton X100), 3 μL/well of water to compound wells or 3 μL to control and standard wells, 6 μL/well recombinant human 11β-HSD type 1 enzyme, 2 μL/well of compound dilutions. For ultimate calculation of percent inhibition, a series of wells are added that represent assay minimum and maximum: one set containing substrate with 667 μM carbenoxolone (background), and another set containing substrate and enzyme without compound (maximum signal). Final DMSO concentration is 0.5% for all compounds, controls and standards. Plates are then placed on a shaker by the robotic arm of the Tecan for 15 seconds before being covered and stacked for a three hour incubation period at room temperature. Upon completion of this incubation, the Tecan robotic arm removes each plate individually from the stacker and places them in position for addition of 5 μL/well of a 250 μM carbenoxolone solution to stop the enzymatic reaction. Plates are then shaken once more for 15 seconds then placed into an Ultra 384 microplate reader (355EX/460EM) for detection of NADPH fluorescence.

Chain of recombinant human 11β-HSD type 1 enzyme (P28845 whole entry): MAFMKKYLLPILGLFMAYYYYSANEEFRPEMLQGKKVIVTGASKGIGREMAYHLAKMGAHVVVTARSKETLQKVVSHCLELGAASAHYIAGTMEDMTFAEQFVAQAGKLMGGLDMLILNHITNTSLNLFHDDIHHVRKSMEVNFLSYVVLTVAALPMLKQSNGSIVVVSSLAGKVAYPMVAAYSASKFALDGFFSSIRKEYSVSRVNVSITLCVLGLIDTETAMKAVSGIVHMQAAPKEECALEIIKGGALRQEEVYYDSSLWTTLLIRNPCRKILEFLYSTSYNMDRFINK

Compound	IC50 [nM]
O=C1C(Cc2ccc(-c3cccnc3)cc2Cl)CCCN1C1CCCCC1 (centres unmarked)	494
CC1CCCCC1N1CCC(Cc2ccc(-c3cccnc3)cc2Cl)C1=O (centres unmarked) [drawing 383]	273
CC1CCCCC1N1CCC(Cc2c(Cl)cc(-c3ccncc3)cc2Cl)C1=O (centres unmarked)	565
O=C1C(Cc2c(F)cccc2Cl)CCCN1C1CCCCC1 (centres unmarked)	879
O=C1C(Cc2c(Cl)cc(Cl)cc2Cl)CCN1C1CCC(O)CC1 (centres unmarked) [drawing 379]	230
O=C1C(Cc2ccc(Cl)cc2Cl)CCN1C1CCC(O)CC1 (centres unmarked)	378
O=C1C(Cc2ccc(-c3ccncc3)cc2Cl)CCN1C1CCCCC1 (centres unmarked)	384

System: cortisone to cortisol conversion (11β-HSD type 1)
Experiment: Acute In Vivo Cortisone Conversion Assay
Conditions: mice dosed orally, subcutaneous cortisone challenge 30 mg/kg, serum cortisol by LC-MS/MS
Procedure: Acute In Vivo Cortisone Conversion Assay
In general, compounds are dosed orally into mice, the mice are challenged with a subcutaneous injection of cortisone at a set timepoint after compound injection, and the blood of each animal is collected some time later. Separated serum is then isolated and analyzed for levels of cortisone and cortisol by LC-MS/MS, followed by calculation of mean cortisol and percent inhibition of each dosing group. Specifically, male C57BL/6 mice are obtained from Harlan Sprague Dawley at average weight of 25 grams. Exact weights are taken upon arrival and the mice randomized into groups of similar weights. Compounds are prepared in 1% w-w HEC, 0.25% w-w polysorbate 80, 0.05% w-w Dow Coming antifoam #1510-US at various doses based on assumed average weight of 25 grams. Compounds are dosed orally, 200 μl per animal, followed by a subcutaneous dose, 200 μl per animal, of 30 mg/kg cortisone at 1 to 24 hours post compound dose. At 10 minutes post cortisone challenge, each animal is euthanized for 1 minute in a CO2 chamber, followed by blood collection via cardiac puncture into serum separator tubes. Once fully clotted, tubes are spun at 2500×g, 4° C. for 15 minutes, the serum transferred to wells of 96-well plates (Coming Inc, Costar #4410, cluster tubes, 1.2 ml, polypropylene), and the plates are frozen at −20° C. until analysis by LC-MS/MS. For analysis, serum samples are thawed and the proteins are precipitated by the addition of acetonitrile containing d4-cortisol internal standard. Samples are vortex mixed and centrifuged. The supernatant is removed and dried under a stream of warm nitrogen. Extracts are reconstituted in methanol/water (1:1) and injected onto the LC-MS/MS system. The levels of cortisone and cortisol are assayed by selective reaction monitoring mode following positive ACPI ionization on a triple quadrupole mass spectrophotometer. […] Examples 91, 135, 119, 15, and 99 were active in the Acute In Vivo Cortisone Conversion Assay.

Compound	activity in the Acute In Vivo Cortisone Conversion Assay
Cl.O=C1C(Cc2ccc(-c3ccncc3)cc2Cl)CCN1C1CCCCC1 (centres unmarked) [Example 91]	active
COc1ccc(Cl)c(CC2CCN(C3CCCCC3)C2=O)c1Cl (centres unmarked) [Example 69]	inactive
CC1CCCCC1N1CCC(Cc2c(F)cccc2Cl)C1=O (centres unmarked) [Example 65]	inactive
CC1CCCCC1N1CCC(Cc2ccc(-c3cccnc3)cc2Cl)C1=O (centres unmarked) [Example 99]	active
O=C1C(Cc2c(Cl)cc(Cl)cc2Cl)CCN1C1CCC(O)CC1 (centres unmarked) [Example 135]	active
CC1CCCCC1N1CCC(Cc2c(Cl)cc(-c3ccncc3)cc2Cl)C1=O.Cl (centres unmarked) [Example 119]	active
O=C1C(Cc2ccc(Cl)cc2Cl)CCN1[C@H]1CC[C@H](O)CC1 (relative stereo) [Example 15, 3-(2,4-Dichloro-benzyl)-1-(trans-4-hydroxy-cyclohexyl)-pyrrolidin-2-one]	active
